# How the values were obtained:
# Format in all cases: biochemical
# TACE = molecular target: T1, TACE (Homo sapiens, UniProt P78536); test: TACE inhibition experiment (in vitro)
# T1 construct: made in house; host or cells: mammalian cells or insect cells
# Human MMP1 = molecular target: T2, Human MMP1 (Homo sapiens, UniProt P03956); test: MMP1 inhibition experiment; conditions: read-out: IC50 value MMP-1
# T2 construct: purchased Calbiochem 444208
# T2 sequence (P03956 100-469): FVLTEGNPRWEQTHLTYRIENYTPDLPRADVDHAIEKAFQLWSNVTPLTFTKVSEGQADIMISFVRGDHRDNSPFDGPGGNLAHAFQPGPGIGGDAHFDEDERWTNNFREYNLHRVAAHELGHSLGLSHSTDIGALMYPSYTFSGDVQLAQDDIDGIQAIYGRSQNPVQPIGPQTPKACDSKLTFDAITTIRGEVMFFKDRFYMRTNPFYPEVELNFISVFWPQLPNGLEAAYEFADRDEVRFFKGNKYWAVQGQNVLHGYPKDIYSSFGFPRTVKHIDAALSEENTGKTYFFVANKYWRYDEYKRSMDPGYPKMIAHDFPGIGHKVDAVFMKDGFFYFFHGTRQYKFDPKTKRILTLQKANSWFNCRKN
# Protocol: (§1) The methods of inhibition experiments carried out for various MMPs are described below.
# This enzyme solution in amount of 10 μL was diluted to 90 μL with the assay buffer A, which was added to 90 μL of 20 μM fluorescent substrate (Dnp-Pro-Cha(β-cyclohexylalanyl)-Gly-Cys(Me)-His-Ala-Lys(Nma)-NH2) prepared in the assay buffer B, followed by reaction for 5 hours at 37° C.
# Human MMP17 = molecular target: T3, Human MMP17 (Homo sapiens, UniProt Q9ULZ9); test: MMP17 inhibition test; conditions: concentration required for 50% inhibition of enzyme activity; read-out: IC50 value MMP-17
# T3 construct: purchased Calbiochem 475940
# T3 sequence (Q9ULZ9 126-300 limits assumed): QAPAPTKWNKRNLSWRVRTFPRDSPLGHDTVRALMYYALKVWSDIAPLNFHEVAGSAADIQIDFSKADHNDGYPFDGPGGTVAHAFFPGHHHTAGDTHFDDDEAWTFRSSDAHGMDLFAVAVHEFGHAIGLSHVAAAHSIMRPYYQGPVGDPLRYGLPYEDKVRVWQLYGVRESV
# Human MMP2 = molecular target: T4, Human MMP2 (Homo sapiens, UniProt P08253); test: MMP2 inhibition experiment; conditions: concentration required for 50% inhibition of enzyme activity; read-out: IC50 value MMP-2
# T4 construct: purchased Calbiochem 444213
# T4 sequence (P08253 110-660): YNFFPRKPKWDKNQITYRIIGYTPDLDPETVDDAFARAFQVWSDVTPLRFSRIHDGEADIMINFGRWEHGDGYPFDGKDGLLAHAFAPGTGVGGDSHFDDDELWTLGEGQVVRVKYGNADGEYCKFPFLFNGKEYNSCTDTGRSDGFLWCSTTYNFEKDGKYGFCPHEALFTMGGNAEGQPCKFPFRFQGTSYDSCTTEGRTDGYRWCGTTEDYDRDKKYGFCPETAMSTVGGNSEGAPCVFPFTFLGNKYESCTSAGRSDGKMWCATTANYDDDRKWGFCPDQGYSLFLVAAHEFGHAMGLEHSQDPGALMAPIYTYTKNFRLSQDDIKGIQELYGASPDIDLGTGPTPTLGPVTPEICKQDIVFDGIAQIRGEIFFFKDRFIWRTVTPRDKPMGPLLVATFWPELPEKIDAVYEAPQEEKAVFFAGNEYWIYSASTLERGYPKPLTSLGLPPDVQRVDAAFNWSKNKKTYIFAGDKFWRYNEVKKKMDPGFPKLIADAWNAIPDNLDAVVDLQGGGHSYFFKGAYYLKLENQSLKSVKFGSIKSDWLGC
# Protocol: This enzyme solution in amount of 10 μL was diluted to 90 μL with the assay buffer A, which was added to 90 μL of 20 μM fluorescent substrate (MOCAc((7-methoxycoumarin-4-yl)acetyl)-Pro-Leu-Gly-Leu-A2pr(Dnp)-Ala-Arg-NH2, Peptide Institute, Inc., #3163-v) prepared in the assay buffer B, followed by reaction for 5 hours at 37° C.
# Human MMP9 = molecular target: T5, Human MMP9 (Homo sapiens, UniProt P14780); test: MMP9 inhibition experiment; conditions: read-out: IC50 value MMP-9
# T5 construct: purchased Calbiochem 444231
# Protocol: as §1
# This enzyme solution in amount of 1 μL was diluted to 90 μL with the assay buffer A, which was added to 90 μL of 20 μM fluorescent substrate (Dnp-Pro-Cha-Gly-Cys(Me)-His-Ala-Lys(Nma)-NH2) prepared in the assay buffer B, followed by reaction for 4 hours at 37° C.
# Human MMP14 = molecular target: T6, Human MMP14 (Homo sapiens, UniProt P50281); test: MMP14 inhibition experiment; conditions: concentration required for 50% inhibition of enzyme activity; read-out: IC50 value MMP-14
# T6 construct: purchased Biogenesis or Calbiochem 5980-1461 or 475935
# Summary of the method: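 Fluorescence assay: substrate Dnp-Pro-Cha-Gly-Cys(Me)-His-Ala-Lys(Nma)-NH2 (20 μM before equal-volume mixing) incubated at 37° C for 5 hours with 4 ng human MMP14.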
# Human MMP3 = molecular target: T7, Human MMP3 (Homo sapiens, UniProt P08254); test: MMP3 inhibition experiment; conditions: concentration required for 50% inhibition of enzyme activity; read-out: IC50 value MMP-3
# T7 construct: purchased Calbiochem 444217
# Summary of the method: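 Fluorescence-quenched substrate NFF-3 (MOCAc/Dnp peptide, 20 μM as prepared) cleaved by 5 ng human MMP3 over 5 hours at 37° C, with inhibition measured from substrate fluorescence.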
# Human MMP13 = molecular target: T8, Human MMP13 (Homo sapiens, UniProt P45452); test: MMP13 inhibition experiment; conditions: concentration required for 50% inhibition of enzyme activity; read-out: IC50 value MMP-13
# T8 construct: purchased Chemicon CC068
# Protocol: Human MMP13 (Chemicon #CC068) in amount of 90 μL (200 ng) was activated by mixing with 10 μL of 10 mM APMA, followed by reaction for 1 hour at 37° C. This enzyme solution in amount of 0.6 μL was diluted to 90 μL with the assay buffer A, which was added to 90 μL of 20 μM fluorescent substrate (Dnp-Pro-Cha-Gly-Cys(Me)-His-Ala-Lys(Nma)-NH2) prepared in the assay buffer B, followed by reaction for 4 hours at 37° C.
# Human MMP8 = molecular target: T9, Human MMP8 (Homo sapiens, UniProt P22894); test: MMP8 inhibition experiment; conditions: concentration required for 50% inhibition of enzyme activity; read-out: IC50 value MMP-8
# T9 construct: purchased Calbiochem 444229
# Summary of the method: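 Human MMP8 activated with APMA for 1 h at 37° C, then incubated with fluorogenic peptide MOCAc-Pro-Leu-Gly-Leu-A2pr(Dnp)-Ala-Arg-NH2 (20 μM stock) for 5 hours at 37° C. Fluorescent substrate cleavage serves as read-out.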
# T7 sequence (P08254 100-272 limits assumed): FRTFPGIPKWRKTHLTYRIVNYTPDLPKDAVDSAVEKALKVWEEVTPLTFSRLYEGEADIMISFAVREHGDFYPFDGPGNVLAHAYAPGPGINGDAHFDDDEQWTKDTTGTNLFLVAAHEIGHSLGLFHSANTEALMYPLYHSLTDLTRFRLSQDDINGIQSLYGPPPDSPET
# T9 sequence (P22894 101-467): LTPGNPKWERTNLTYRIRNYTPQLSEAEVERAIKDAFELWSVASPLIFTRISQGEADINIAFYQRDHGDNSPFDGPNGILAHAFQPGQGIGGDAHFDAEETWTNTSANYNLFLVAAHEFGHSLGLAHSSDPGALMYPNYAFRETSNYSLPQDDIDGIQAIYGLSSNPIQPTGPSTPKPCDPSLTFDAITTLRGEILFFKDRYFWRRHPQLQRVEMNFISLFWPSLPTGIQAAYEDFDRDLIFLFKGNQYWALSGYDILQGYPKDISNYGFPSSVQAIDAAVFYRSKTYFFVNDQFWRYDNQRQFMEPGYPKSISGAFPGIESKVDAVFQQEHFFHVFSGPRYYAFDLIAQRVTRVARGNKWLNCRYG
# T1 sequence (P78536 215-824): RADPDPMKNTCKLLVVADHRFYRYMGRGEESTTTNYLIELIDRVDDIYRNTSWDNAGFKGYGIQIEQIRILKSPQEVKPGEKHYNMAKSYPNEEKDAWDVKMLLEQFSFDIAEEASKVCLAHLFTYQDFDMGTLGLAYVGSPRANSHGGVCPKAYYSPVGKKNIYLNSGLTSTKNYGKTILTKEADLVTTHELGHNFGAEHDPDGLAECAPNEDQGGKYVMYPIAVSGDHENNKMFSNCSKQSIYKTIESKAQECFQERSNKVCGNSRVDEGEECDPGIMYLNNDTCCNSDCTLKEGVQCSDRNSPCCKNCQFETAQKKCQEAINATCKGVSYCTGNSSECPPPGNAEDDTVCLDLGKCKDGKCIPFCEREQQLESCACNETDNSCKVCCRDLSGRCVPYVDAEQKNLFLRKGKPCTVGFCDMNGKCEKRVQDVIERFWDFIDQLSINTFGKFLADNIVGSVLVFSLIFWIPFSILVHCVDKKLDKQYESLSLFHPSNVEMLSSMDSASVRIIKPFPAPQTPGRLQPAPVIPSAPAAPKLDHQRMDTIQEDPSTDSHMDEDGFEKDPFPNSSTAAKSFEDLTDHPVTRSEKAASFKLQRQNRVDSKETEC
# T5 sequence (P14780 107-707 limits assumed): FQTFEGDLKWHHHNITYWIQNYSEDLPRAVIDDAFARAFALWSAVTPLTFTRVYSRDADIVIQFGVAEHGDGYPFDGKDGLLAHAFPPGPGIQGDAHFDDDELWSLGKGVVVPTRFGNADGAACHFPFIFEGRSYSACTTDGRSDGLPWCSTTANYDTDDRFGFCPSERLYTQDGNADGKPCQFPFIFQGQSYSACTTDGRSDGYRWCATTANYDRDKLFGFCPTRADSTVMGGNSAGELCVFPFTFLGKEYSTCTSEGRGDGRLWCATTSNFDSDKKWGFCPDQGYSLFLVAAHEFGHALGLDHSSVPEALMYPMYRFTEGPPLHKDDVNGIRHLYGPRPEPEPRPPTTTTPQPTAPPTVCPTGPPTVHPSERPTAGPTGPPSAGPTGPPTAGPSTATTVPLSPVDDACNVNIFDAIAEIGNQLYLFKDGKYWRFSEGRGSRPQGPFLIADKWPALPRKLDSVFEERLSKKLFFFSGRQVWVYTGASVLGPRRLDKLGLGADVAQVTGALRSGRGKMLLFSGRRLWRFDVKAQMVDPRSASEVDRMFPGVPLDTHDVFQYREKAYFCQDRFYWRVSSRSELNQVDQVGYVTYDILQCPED
Compound,IC50 (TACE) [µM],IC50 (Human MMP1) [µM],IC50 (Human MMP17) [µM],IC50 (Human MMP2) [µM],IC50 (Human MMP9) [µM],IC50 (Human MMP14) [µM],IC50 (Human MMP3) [µM],IC50 (Human MMP13) [µM],IC50 (Human MMP8) [µM]
COc1ccc(C(=O)N2CCN(CC(CS(=O)(=O)c3ccc(OCc4cc(C)nc5ccccc45)cc3)N(O)C=O)CC2)cc1 (stereo not drawn) [Example I-54],0.008,70,0.85,12,31,43,1.2,23,42
Cc1cc(COc2ccc(S(=O)(=O)CC(CC3CCN(C(=O)c4ccccc4)CC3)N(O)C=O)cc2)c2ccccc2n1 (stereo not drawn) [Example I-50],0.013,60,0.2,1.4,31,30,0.2,3,5.8
Cc1cc(COc2ccc(S(=O)(=O)CC(C=C3CCN(C=O)CC3)N(O)C=O)cc2)c2ccccc2n1 (stereo not drawn) [Example I-43],0.0031,> 100,4.5,50,> 100,> 100,11,65,52
"Cc1cc(COc2ccc(S(=O)(=O)CC(N(O)C=O)C3(C)CCOCC3)cc2)c2ccccc2n1 (stereo not drawn) [Example I-60, N-hydroxy-N-{2-[4-(2-methylquinolin-4-ylmethoxy)benzenesulfonyl]-1-(4-methyltetrahydropyran-4-yl)ethyl}formamide]",0.0083,> 100,0.51,60,> 100,> 100,2.5,56,10
Cc1ccc(CCC(CS(=O)(=O)c2ccc(OCc3cc(C)nc4ccccc34)cc2)N(O)C=O)cc1 (stereo not drawn) [Example I-36],0.17,70,20,6,43,37,9.7,20,68
CC(=O)N1CCC(CC(CS(=O)(=O)c2ccc(OCc3cc(C)nc4ccccc34)cc2)N(O)C=O)CC1 (stereo not drawn) [Example I-69],0.0053,> 100,0.45,9,> 100,> 100,0.63,13,9.8
Cc1cc(COc2ccc(S(=O)(=O)CC(N(O)C=O)C3(C)CCC(=O)CC3)cc2)c2ccccc2n1 (stereo not drawn) [Example I-48],0.019,> 100,1,70,> 100,> 100,2.8,50,18
CCC(CC)C(=O)N1CCC(C(CS(=O)(=O)c2ccc(OCc3cc(C)nc4ccccc34)cc2)N(O)C=O)CC1 (stereo not drawn) [Example I-132],0.023,53,0.085,2.2,40,16,0.21,2.2,8
COCOC1CCC(C)(C(CS(=O)(=O)c2ccc(OCc3cc(C)nc4ccccc34)cc2)N(O)C=O)CC1 (stereo not drawn) [Example I-128],0.032,> 100,0.54,43,> 100,50,1.3,22,25
Cc1cncc(C(CS(=O)(=O)c2ccc(OCc3cc(C)nc4ccccc34)cc2)N(O)C=O)c1 (stereo not drawn) [Example I-31],0.0028,> 100,1.8,50,> 100,90,3.2,26,62

# Reference: patent publication US7511144B2, “Reverse hydroxamic acid derivatives” (Kaken Pharmaceutical Co., Ltd., priority 2001, dated 2009)
